We go through 4 compounds from paper PMC5564600 (Oncotarget, 2017).

Common to all, as to assay: biochemical
What all share (type): binding

Assay [1] deals with T1, panel of 442 kinases (Homo sapiens, UniProt P29322).
T1 construct: purchased Ambit Biosciences (scanMAXX KINOMEscan)
T1 sequence (P29322 28-1005): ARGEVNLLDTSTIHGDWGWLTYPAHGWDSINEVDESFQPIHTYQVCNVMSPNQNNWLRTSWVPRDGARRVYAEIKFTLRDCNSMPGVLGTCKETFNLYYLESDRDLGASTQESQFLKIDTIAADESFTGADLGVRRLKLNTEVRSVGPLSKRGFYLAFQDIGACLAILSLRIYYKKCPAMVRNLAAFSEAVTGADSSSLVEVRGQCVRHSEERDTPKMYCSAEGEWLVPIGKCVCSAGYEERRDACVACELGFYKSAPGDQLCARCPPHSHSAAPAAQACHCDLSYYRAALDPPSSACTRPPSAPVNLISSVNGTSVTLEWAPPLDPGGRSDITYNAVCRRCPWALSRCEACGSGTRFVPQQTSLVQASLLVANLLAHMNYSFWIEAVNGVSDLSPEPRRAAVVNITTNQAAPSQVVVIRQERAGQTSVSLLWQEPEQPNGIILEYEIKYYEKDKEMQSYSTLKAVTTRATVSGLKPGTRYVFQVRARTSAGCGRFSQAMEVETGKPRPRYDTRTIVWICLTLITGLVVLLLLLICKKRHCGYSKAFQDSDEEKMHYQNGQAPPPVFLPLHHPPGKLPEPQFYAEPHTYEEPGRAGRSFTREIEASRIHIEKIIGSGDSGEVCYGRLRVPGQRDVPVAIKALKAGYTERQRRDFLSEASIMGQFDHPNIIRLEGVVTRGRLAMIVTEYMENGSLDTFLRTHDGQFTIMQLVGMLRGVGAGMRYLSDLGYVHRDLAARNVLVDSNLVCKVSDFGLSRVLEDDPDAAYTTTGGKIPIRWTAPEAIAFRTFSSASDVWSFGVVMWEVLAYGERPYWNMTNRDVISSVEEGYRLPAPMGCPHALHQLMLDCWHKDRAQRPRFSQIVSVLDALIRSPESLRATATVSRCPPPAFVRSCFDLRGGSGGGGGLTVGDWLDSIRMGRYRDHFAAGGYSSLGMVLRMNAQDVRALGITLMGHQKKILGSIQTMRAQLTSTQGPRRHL
Particulars: EPHA8; for remaining activity at 1 µM: read-out: % of control at 1 µM.

Assay [2] deals with T2, panel of 442 kinases (Homo sapiens, UniProt P30530).
T2 construct: purchased Ambit Biosciences (scanMAXX KINOMEscan)
T2 sequence (P30530 26-894): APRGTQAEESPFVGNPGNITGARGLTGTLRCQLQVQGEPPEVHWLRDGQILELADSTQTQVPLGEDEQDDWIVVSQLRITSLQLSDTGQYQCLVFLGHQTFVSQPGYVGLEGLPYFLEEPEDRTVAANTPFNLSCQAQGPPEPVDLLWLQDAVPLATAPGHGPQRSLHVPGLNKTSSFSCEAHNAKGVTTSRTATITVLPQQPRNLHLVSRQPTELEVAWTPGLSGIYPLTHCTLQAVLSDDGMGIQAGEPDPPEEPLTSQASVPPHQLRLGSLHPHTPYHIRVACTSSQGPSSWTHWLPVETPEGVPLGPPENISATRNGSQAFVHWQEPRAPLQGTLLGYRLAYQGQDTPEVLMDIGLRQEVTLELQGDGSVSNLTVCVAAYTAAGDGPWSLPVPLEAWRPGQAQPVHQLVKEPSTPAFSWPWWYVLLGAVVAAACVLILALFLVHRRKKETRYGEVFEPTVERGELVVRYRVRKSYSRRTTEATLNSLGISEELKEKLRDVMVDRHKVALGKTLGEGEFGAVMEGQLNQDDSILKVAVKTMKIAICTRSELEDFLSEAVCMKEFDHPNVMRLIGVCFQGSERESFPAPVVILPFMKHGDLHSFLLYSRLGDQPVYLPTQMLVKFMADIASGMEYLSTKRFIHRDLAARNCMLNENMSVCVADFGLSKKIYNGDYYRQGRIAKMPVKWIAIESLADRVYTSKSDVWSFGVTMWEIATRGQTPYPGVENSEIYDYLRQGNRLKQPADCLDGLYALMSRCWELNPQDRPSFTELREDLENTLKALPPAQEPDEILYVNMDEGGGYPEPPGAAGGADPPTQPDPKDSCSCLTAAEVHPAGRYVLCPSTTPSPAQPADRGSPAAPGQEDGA
Particulars: AXL; for remaining activity at 1 µM: read-out: % of control at 1 µM.

Assay [3] addresses T3, panel of 442 kinases (Homo sapiens, UniProt P50613).
T3 construct: purchased Ambit Biosciences (scanMAXX KINOMEscan)
Particulars: CDK7; for remaining activity at 1 µM: read-out: % of control at 1 µM.

Assay [4] has as its target T4, panel of 442 kinases (Homo sapiens, UniProt P53667).
T4 construct: purchased Ambit Biosciences (scanMAXX KINOMEscan)
The note with it: kinase LIMK1; for remaining activity at 1 µM: read-out: % of control at 1 µM.

For assay [5], the target named is T5, panel of 442 kinases (Homo sapiens, UniProt Q13882).
T5 construct: purchased Ambit Biosciences (scanMAXX KINOMEscan)
T5 sequence (Q13882 whole entry): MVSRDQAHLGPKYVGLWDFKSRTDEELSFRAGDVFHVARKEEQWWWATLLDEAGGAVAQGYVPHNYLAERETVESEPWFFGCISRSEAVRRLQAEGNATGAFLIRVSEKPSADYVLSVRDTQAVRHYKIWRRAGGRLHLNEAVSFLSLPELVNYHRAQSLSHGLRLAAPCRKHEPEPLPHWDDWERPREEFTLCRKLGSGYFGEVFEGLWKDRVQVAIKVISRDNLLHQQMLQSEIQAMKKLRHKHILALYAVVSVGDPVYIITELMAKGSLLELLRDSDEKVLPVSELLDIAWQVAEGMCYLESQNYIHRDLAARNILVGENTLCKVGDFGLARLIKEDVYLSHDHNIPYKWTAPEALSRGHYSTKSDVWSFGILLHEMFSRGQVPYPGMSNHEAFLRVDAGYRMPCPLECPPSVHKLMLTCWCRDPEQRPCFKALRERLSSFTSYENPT
Particulars: BRK; for remaining activity at 1 µM: read-out: % of control at 1 µM.

In assay [6] the target is T6, panel of 442 kinases (Homo sapiens, UniProt Q15303).
T6 construct: purchased Ambit Biosciences (scanMAXX KINOMEscan)
T6 sequence (Q15303 26-1308): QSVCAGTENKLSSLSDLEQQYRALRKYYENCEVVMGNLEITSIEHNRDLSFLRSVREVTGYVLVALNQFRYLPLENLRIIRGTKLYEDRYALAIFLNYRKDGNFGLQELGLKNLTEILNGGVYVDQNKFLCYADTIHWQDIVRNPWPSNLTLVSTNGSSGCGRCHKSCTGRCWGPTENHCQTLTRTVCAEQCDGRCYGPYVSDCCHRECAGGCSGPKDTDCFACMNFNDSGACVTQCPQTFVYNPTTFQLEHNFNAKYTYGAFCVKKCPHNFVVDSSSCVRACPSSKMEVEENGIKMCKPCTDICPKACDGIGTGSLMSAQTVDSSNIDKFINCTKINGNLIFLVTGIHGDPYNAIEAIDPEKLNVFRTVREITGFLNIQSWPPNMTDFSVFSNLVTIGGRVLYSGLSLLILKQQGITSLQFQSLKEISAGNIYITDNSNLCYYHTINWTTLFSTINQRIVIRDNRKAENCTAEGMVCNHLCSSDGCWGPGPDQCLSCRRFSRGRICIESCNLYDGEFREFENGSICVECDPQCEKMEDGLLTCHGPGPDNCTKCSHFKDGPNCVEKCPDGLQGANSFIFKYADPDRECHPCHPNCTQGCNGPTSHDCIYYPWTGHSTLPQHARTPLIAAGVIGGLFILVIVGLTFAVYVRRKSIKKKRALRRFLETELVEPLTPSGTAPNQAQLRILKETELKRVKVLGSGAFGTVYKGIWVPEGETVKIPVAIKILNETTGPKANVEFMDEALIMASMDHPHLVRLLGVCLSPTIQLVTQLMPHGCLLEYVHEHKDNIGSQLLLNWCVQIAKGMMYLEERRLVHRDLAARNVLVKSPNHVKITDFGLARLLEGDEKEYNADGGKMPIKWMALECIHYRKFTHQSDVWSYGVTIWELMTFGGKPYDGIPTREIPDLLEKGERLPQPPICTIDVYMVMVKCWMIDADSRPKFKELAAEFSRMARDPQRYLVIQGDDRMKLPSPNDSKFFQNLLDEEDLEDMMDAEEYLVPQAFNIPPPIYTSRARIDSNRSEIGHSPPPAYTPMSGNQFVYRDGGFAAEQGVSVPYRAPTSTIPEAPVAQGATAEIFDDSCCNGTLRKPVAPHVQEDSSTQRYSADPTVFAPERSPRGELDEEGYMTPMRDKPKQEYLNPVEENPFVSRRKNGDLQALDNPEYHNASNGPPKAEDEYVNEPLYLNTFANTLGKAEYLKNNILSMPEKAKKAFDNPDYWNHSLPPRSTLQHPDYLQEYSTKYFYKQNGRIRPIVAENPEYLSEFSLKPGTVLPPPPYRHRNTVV
Particulars: ERBB4; for remaining activity at 1 µM: read-out: % of control at 1 µM.

Where [7] appears, read: 10 µM, read-out: % of control at 10 µM.

T3 sequence (P50613 whole entry): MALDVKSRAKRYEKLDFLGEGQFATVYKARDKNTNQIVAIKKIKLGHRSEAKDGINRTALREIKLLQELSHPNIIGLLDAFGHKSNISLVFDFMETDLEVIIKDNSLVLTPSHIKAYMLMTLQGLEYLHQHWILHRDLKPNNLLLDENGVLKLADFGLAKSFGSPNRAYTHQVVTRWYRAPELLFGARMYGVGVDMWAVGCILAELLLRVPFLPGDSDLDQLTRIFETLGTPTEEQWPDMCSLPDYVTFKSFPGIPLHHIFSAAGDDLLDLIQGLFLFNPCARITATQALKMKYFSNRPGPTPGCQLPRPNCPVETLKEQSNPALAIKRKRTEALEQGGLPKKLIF
T4 sequence (P53667 whole entry): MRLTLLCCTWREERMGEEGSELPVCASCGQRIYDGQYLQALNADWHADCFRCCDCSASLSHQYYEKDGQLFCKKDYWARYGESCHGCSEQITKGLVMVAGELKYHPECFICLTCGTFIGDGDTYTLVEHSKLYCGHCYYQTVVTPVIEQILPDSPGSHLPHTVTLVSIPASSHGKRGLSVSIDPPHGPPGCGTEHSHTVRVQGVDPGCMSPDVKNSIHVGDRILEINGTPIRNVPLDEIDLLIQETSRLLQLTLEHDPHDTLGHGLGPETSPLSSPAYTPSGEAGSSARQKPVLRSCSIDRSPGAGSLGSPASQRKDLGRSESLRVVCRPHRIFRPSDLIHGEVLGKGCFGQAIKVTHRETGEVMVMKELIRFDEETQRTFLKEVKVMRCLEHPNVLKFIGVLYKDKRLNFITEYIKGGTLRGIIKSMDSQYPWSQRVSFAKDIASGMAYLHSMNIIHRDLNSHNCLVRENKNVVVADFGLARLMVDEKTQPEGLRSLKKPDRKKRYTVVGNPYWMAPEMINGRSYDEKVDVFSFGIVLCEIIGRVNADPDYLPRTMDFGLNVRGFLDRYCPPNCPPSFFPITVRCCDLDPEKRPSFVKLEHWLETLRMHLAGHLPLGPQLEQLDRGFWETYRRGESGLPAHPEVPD

As for `Nc1cc(C(F)(F)F)c(-c2cc(N3CCOCC3)nc(N3CCOCC3)n2)cn1` [Buparlisib], the remaining activity at 1 µM worked out at 100% at panel of 442 kinases [1]; 89% on panel of 442 kinases [2]; 93% at panel of 442 kinases [3]; 100% on panel of 442 kinases [4]; 100% on panel of 442 kinases [5]; 69% at panel of 442 kinases [6]. For the same compound, the remaining activity at 10 µM on panel of 442 kinases [1] (setting [7]), at panel of 442 kinases [2] (setting [7]), on panel of 442 kinases [3] (setting [7]), at panel of 442 kinases [4] (setting [7]), at panel of 442 kinases [5] (setting [7]) and on panel of 442 kinases [6] (setting [7]) was 100% throughout.

Consider `Cn1c(=O)n(-c2ccc(C(C)(C)C#N)cc2)c2c3cc(-c4cnc5ccccc5c4)ccc3ncc21` [Dactolisib, 2-methyl-2-[4-(3-methyl-2-oxo-8-quinolin-3-yl-2,3-dihydroimidazo[4,5-c]quinolin-1-yl)-phenyl] propionitrile], for which the remaining activity at 1 µM on panel of 442 kinases [1] stood at 94%; on panel of 442 kinases [2], 48%; on panel of 442 kinases [3] it was 57%; at panel of 442 kinases [4], 99%; at panel of 442 kinases [5], 90%; at panel of 442 kinases [6], 100%.

As for `COc1ncc(-c2ccc3nccc(-c4ccnnc4)c3c2)cc1NS(=O)(=O)c1ccc(F)cc1F` [Omipalisib], the remaining activity at 1 µM worked out at 100% on panel of 442 kinases [1]; 100% at panel of 442 kinases [2]; 100% at panel of 442 kinases [3]; 100% on panel of 442 kinases [4]; 91% at panel of 442 kinases [5]; 100% at panel of 442 kinases [6].

On to `FC(F)c1nc2ccccc2n1-c1nc(N2CCOCC2)nc(N2CCOCC2)n1` [ZSTK474, 2-(difluoromethyl)-1-[4,6-di(4-morpholinyl)-1,3,5-triazin-2-yl]-1H-benzimidazole], for which the remaining activity at 1 µM was determined as 100% on panel of 442 kinases [1]; 93% on panel of 442 kinases [2]; 68% on panel of 442 kinases [3]; 95% at panel of 442 kinases [4]; 91% on panel of 442 kinases [5]; 100% on panel of 442 kinases [6].
